Measured values: US12595239B2, “Substituted isoxazoline derivatives” (BASF SE, priority 2021, dated 2026)

Experiments:
Type in all cases: in vivo
[1] = system: Aedes aegypti; experiment: whole plant or invertebrate; settings: 48 h, larval mortality, 2 days, read-out: mortality in comparison with untreated controls
Method: For evaluating control of Yellow Fever Mosquito, the test unit consisted of 96-well-microtiter plates containing 200 μl of tap water per well and 5-15 freshly hatched A. aegypti larvae. The active compounds were formulated using a solution containing 75% (v/v) water and 25% (v/v) DMSO. Different concentrations of formulated compounds or mixtures were sprayed onto the insect diet at 2.5 μl, using a custom-built micro atomizer, at two replications.
After application, microtiter plates were incubated at 28±1° C., 80±5% RH for 2 days. Larval mortality was then visually assessed.

[2] = system: Dichromothrips corbetti; experiment: B.7 Orchid Thrips, floral-immersion test; settings: adult thrips, 72 hours after treatment, read-out: mortality in comparison with untreated controls
Method: Dichromothrips corbetti adults used for bioassay were obtained from a colony maintained continuously under laboratory conditions. For testing purposes, the test compound was diluted in a 1:1 mixture of acetone:water (vol:vol), plus Kinetic at a rate of 0.01% v/v.
Thrips potency of each compound was evaluated by using a floral-immersion technique. Each orchid petal was dipped into treatment solution and allowed to dry in Petri dishes. Treated petals were placed into individual re-sealable plastic along with about 20 adult thrips. All test arenas were held under dark condition and a temperature of about 28° C. for duration of the assay. The percent mortality was recorded 72 hours after treatment.

[3] = system: Tetranychus kanzawai; experiment: B.10 Red Spider Mite, cowpea bean spray test; settings: 72 hours after treatment, read-out: mortality in comparison with untreated controls
Method: The active compound was dissolved at the desired concentration in a mixture of 1:1 (vol:vol) distilled water:acetone. Add surfactant (Kinetic) was added at a rate of 0.01% (vol/vol). The test solution was prepared at the day of use. Potted cowpea beans of 4-5 days of age were cleaned with tap water and sprayed with I-2 ml of the test solution using air driven DeVilbiss® hand atomizer at 20-30 psi (≈1,38 to 2,07 bar). The treated plants were allowed to air dry and afterwards inoculated with 30 or more mites by clipping a cassava leaf section from rearing population. Treated plants were placed inside a holding room at about 25-26° C. and about 65-70% relative humidity. Percent mortality was assessed 72 hours after treatment.

O=C(Nc1ncc(F)cc1F)c1cc(OC2=NOC(c3cc(Cl)c(F)c(Cl)c3)(C(F)(F)F)C2)ccc1Cl (stereo not drawn) [II-8, 2-chloro-5-[[5-(3,5-dichloro-4-fluoro-phenyl)-5-(trifluoromethyl)-4H-isoxazol-3-yl]oxy]-N-(3,5-difluoro-2-pyridyl)benzamide]
≥ 75%: mortality at 2500 ppm [1] | mortality at 300 ppm [2] | mortality at 300 ppm [3]
